Source: patent US10550115B2, “1, 4, 8-triazaphenanthrene derivatives for the treatment of neurodegenerative disorders” (Institut Du Cerveau et de la Moëlle Epiniere, priority 2015, dated 2020)

Tests used:
[1] = tested on: dopaminergic (TH+) neurons derived from primary cultures of embryonic ventral mesencephalon; assay: Spontaneous degeneration of dopaminergic neurons in primary cultures of embryonic ventral mesencephalon, TH+ neuron count at DIV 10; type: cell-based; conditions: for viability at 0.1 µM / viability at 1 µM / viability at 10 µM: Neuron, 240 h, read-out: TH+ neurons, % relative to the control ± standard error; for Neuroprotective activity, in words: survival percentage at 10 μM almost equal to that induced by db-cAMP at 1 mM
Experimental: The compounds of the invention were tested in a model of spontaneous degeneration of dopaminergic neurons derived from primary cultures of embryonic ventral mesencephalon according to the protocol described in the article by S. Guerreiro et a1. (2008). The primary cultures of embryonic ventral mesencephalon thus obtained are mixed cultures containing about 50% neuronal cells and 50% glial cells. Among the neuronal cells, dopaminergic neurons make up 3% of the total neurons, most of the neurons derived from these cultures being GABAergic. Concerning the glial cells, they mainly consist of astrocytes (>95% of the glial cells). These cultures are characterized by spontaneous, progressive and selective death of dopaminergic neurons as a result of a mechanism involving immature astrocytes and calcium dyshomeostasis (E. Rousseau et a1. (2013), D. Toulorge et a1. (2011)). The neuroprotective effect of the compounds of the invention was evaluated by counting dopaminergic (TH^+) neurons stained by tyrosine hydroxylase (TH) immunohistochemistry after 10 days of culture (DIV 10).

[2] = In vivo study of BBB crossing, HPLC-MS/MS of plasma and brain after IV injection; design: species or system CD-1 mice
Experimental: The goal of this study is to confirm, by HPLC coupled to mass spectrometry, the presence of compound Iac in the brain parenchyma after sub-chronic intravenous treatment in mice.
The study is performed with CD-1 mice.
A 0.5 mg/mL solution of compound Iac is prepared in physiological saline containing 10% Cremophor EL®. The same dose of this solution is administered intravenously to 6 mice (2 μL/g).
After 5 min, 3 mice are sacrificed. After 30 min, the other 3 mice are sacrificed.
Blood is drawn, and the plasma is separated by centrifugation. The brain is harvested after intracardiac perfusion. The samples are frozen and stored at −80° C. before treatment.
Plasma: 400 μL of each plasma sample is mixed with 1 mL of acetonitrile to precipitate proteins and extract compound Iac.
Brain: Each brain is ground in 400 μL of physiological saline. 800 μL of acetonitrile is added in order to extract compound Iac.
The treated samples are vortexed for 3 minutes and then placed in a sonicator again for 3 minutes. The precipitated proteins and the solid residues are sedimented by centrifugation (15,000 g, 5 minutes at 4° C.). The supernatants are transferred to a microplate to be analysed by HPLC-MS/MS.
Samples are analysed with the method described below, with detection and quantification, based on peak area, being performed by HPLC-MS/MS in MRM mode.
For the calculation of log [brain]/[plasma] to determine blood-brain barrier crossing, the mean plasma volume of a mouse is evaluated at 1.5 mL.

[3] = Aqueous solubility; type: physicochemical; conditions: aqueous medium (not further specified)
[4] = tested on: mouse model of Parkinson's disease treated with MPTP; assay: MPTP mouse model of Parkinson's disease: striatum dopamine levels and dopamine turnover (HPLC, electrochemical detection); type: in vivo; conditions: MPTP mice
Experimental: (§1) The potential neuroprotective effects of Iac were evaluated by measuring striatum dopamine levels and dopamine turnover in the mouse model of Parkinson's disease treated with MPTP (1-methyl-4-phenyl-1,2,3,6-tetrahydropyridine), and by evaluating the number of dopaminergic neurons saved in the substantia nigra. Mice were treated with Iac (50 and 100 mg/kg, p.o., in 1% carboxymethyl cellulose and 0.5% Tween 80) for 11 consecutive days. MPTP (20 mg/kg; intraperitoneal route), or saline solution for the controls, was administered on treatment days 4 to 8. All mice were killed on day 12 following final administration of the treatment, then the striatal tissue was dissected for analysis. The effect of MPTP treatment on striatum dopamine depletion was analysed by high-pressure liquid chromatography (HPLC) in combination with electrochemical detection for measurement of levels of dopamine monoamine (DA), 3,4-dihydroxyphenylacetic acid (DOPAC), and homovanillic acid (HVA).

[5] = tested on: dopaminergic neurons of the substantia nigra; assay: MPTP mouse model of Parkinson's disease: survival of TH+ dopaminergic neurons in the substantia nigra; type: in vivo; conditions: MPTP/Iac mice
Experimental: as §1
At the dose of 2×25 mg/kg/d (par os), the near-total survival of TH^+ neurons was observed. Indeed, in the group of mice treated with MPTP/Iac, survival was measured at 93±4% relative to the controls.

[6] = 50 mg/kg p.o., 11 consecutive days
[7] = 100 mg/kg p.o., 11 consecutive days

| SMILES | viability at 0.1 µM [1] [%] | viability at 1 µM [1] [%] | viability at 10 µM [1] [%] | Neuroprotective activity, in words [1] | further results |
| --- | --- | --- | --- | --- | --- |
| c1ccc2ncc(-c3cnc4ccc5ncccc5c4n3)cc2c1 [Iam] | 27.6 ± 2 | 46.7 ± 2.7 | 97.3 ± 3.6 | particularly high activity |  |
| Cc1nc2ccc3ncccc3c2nc1-c1ccc2ccccc2c1 [Ibj] | 58.1 ± 2.8 | 59.2 ± 2.2 | 67.3 ± 2.5 |  |  |
| Oc1cccc(-c2cnc3ccc4ncccc4c3n2)c1 [Iae] | 24.7 ± 1.6 | 47.7 ± 2.6 | 99.3 ± 4.4 | particularly high activity |  |
| Fc1ccc(-c2cnc3ccc4ncccc4c3n2)cc1 [Iah] | 24.4 ± 1.4 | 32.8 ± 1.8 | 42.8 ± 2.2 |  |  |
| c1cnc2ccc3nccnc3c2c1 [Iaa] | 25.7 ± 1.6 | 26.2 ± 1.7 | 30.6 ± 2.3 |  |  |
| Clc1cnc2ccc3ncccc3c2n1 [Iad] | 27.4 ± 1.6 | 26.5 ± 1.6 | 33.8 ± 1.8 |  |  |
| c1cncc(-c2cnc3ccc4ncccc4c3n2)c1 [Iag] | 31.4 ± 1.7 | 48.3 ± 2.4 | 96.6 ± 4.5 | particularly high activity |  |
| C#Cc1cnc2ccc3ncccc3c2n1 [Iak] | 38.2 ± 2.1 | 40.7 ± 2.6 | 7 ± 1.3 |  |  |
| COc1cc(-c2cnc3ccc4ncccc4c3n2)cc(OC)c1OC [Iaf] | 27.7 ± 1.6 | 46.8 ± 2.3 | 70.8 ± 3.5 |  |  |
| c1ccc2cc(-c3cnc4ccc5ncccc5c4n3)ccc2c1 [Iaj] | 28.9 ± 1.8 | 42.8 ± 2.1 | 94.9 ± 3.5 | particularly high activity |  |
| c1ccc(-c2cnc3ccc4ncccc4c3n2)cc1 [Iac, 3-phenyl-1,4,8-triazaphenanthrene] | 46.6 ± 2.8 | 64.7 ± 2.9 | 91 ± 3.7 | particularly high activity | Amount (nmol/brain) ([2]; 5 min after IV injection of 1 mg/kg, mice): 5.19 ± 0.25 nmol/brain; Amount (nmol/brain) ([2]; 30 min after IV injection of 1 mg/kg, mice): 0.50 ± 0.07 nmol/brain; Kp at 5 min ([2]; CD-1, brain and plasma, 5 min after IV injection of 1 mg/kg, mean plasma volume of a mouse evaluated at 1.5 mL, read-out: Log [brain]/[plasma]): 0.15 ± 0.05; Kp at 30 min ([2]; CD-1, brain and plasma, 30 min after IV injection of 1 mg/kg, mean plasma volume of a mouse evaluated at 1.5 mL, read-out: Log [brain]/[plasma]): 0.02 ± 0.1; concentration at 5 min ([2]; CD-1, mouse, plasma, 5 min after IV injection of 1 mg/kg, mice): 2.47 ± 0.24 µM; concentration at 30 min ([2]; CD-1, mouse, plasma, 30 min after IV injection of 1 mg/kg, mice): 0.32 ± 0.05 µM; Blood-brain barrier crossing in vivo, in words ([2]; after intravenous administration): able to cross the BBB; solubility [3]: < 0.01 mg/mL; Decrease in the (DOPAC+HVA)/DA ratio [4, 6]: 30%; Increase of striatum DA levels [4, 6]: 64%; Decrease in the (DOPAC+HVA)/DA ratio [4, 7]: 28%; Increase of striatum DA levels [4, 7]: 78%; Increase of striatum HVA levels [4, 7]: 25%; Effect on DOPAC levels ([4]; 50 and 100 mg/kg p.o.): no significant effect; Survival of TH+ neurons relative to the controls ([5]; 2×25 mg/kg/d per os): 93±4%; Dopaminergic neuron survival relative to the controls ([5]; 2×50 mg/kg/d per os): 81±4%; Activity (concentration showing neuroprotective activity in vitro) ([1]; in vitro): 1 µM; Concentration for optimal neuroprotective activity ([1]; in vitro): 10 µM |
